Test results published in patent US20210163443A1, “Febrifugine Derivatives” (BRISTOL-MYERS SQUIBB COMPANY, priority 2019, published 2021).
Where a name gives a salt, the structure may show the parent alone. Read-outs that look alike come from different tables or passages of the source.

Columns and labels:
[1] = molecular target: T1, human ProRS (prolyl tRNA synthetase moiety of glutamyl prolyl tRNA synthetase, EPRS) (Homo sapiens, UniProt P07814); assay: Assay for inhibitors of prolyl tRNA synthetase activity (ProRS assay, labeled proline incorporation); assay type: biochemical
T1 construct: The prolyl tRNA synthetase moiety (ProRS) in the cDNA of glutamyl prolyl tRNA synthetase was subcloned; 6xHis (N, cleaved yes); made in house; host or cells: E. coli BL21 (DE3)
T1 sequence (P07814 1007-1512 limits assumed): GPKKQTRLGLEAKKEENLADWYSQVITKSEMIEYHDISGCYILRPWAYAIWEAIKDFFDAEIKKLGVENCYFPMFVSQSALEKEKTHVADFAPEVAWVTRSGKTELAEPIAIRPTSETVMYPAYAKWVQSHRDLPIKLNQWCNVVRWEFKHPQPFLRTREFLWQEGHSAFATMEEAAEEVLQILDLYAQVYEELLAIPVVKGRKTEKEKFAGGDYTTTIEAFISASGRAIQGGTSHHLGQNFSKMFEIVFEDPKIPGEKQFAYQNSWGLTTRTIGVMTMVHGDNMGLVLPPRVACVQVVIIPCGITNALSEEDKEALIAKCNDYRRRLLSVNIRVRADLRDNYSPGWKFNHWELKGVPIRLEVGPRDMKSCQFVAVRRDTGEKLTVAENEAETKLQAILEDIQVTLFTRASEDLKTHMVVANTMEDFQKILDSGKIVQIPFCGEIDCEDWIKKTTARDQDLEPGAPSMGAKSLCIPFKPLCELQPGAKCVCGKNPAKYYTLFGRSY
Source text: In order to establish the activities of the compounds highlighted above, we determined extent of inhibition of prolyl tRNA synthetase activity in dose response curves to obtain IC50 values.
The prolyl tRNA synthetase moiety (ProRS) in the cDNA of glutamyl prolyl tRNA synthetase was subcloned, tagged with a single biotin, purified and used in the assay.
Briefly, human ProRS with a 6×N-terminal His tag in pET28N with TVMV BioP was transformed in E. coli BL21 (DE3) cells, selected, overexpressed and purified using a Ni Seph 6 FF XK 16/20 column in the first stage. Ni-NTA eluates were pooled and treated with TVMV protease, and biotinylated using d-Biotin, MgCl2, ATP and the BirA enzyme. This was rerun through a Ni column as before. The eluates were further enriched and purified using membrane ultrafiltration and a SuperDex 200 XK 16/60 column, and peak fractions were confirmed by SDS-PAGE prior to protein amount determination, aliquoting and storage at −80° C. • ProRS assay was performed in 96 well plates in a final reaction volume of 20 μl, using staggered additions of Tris-Cl (pH 7.5, 60 mM), dithiothreitol (2 mM), ATP (5 mM, pH 7.0), MgCl2 6 mM), ProRS (20 nM, with pre-determined active fraction range) and bovine tRNA (20 μg). Controls and compounds, at various concentrations (10 μM to 0.5 nM), were incubated on ice with enzyme mix for 15 min followed by addition of proline (non-labeled and labeled, 3.96 and 1.04 μM (1 μCi) respectively) to initiate the reaction. Reaction was carried out for 10 min at 37° C. and terminated by addition of TCA (10%, 100 μl). Reaction mix was collected on a Whatman GF/B filter using a vacuum filtration manifold. This filter was washed 3 times with 5% TCA followed by 2 washes with ethanol, air dried, and read using a liquid scintillation counter (TopCount NXT) using MicroScint O. IC50 values were calculated and analyzed using ToolSet (4-parameter plot) and depicted herein.

Rat hepatocytes = assay: GSH trapping assay in rat hepatocytes; assay type: in vitro ADME; settings: 30 μM, 24 hr incubation, LC-MS
Protocol: Rat hepatocytes were isolated from male Sprague-Dawley rats (Vivo Biotech Ltd, HYD, India), weighing 230 to 280 g by the two step collagenase perfusion method (seglen, 1976; Berry M N and Friend D S.1969). Rat hepatocytes were cultured in Dulbecco's Modified Eagle's Medium (DMEM, Gibco®, USA) supplemented with 10^−6 M dexamethasone (Gibco®), 5% fetal bovine serum (Gibco®) and cocktail-A mix (CM3000, Gibco®) containing HEPES buffer (PH 7.4), GlutaMAX™, human recombinant insulin, penicillin and streptomycin. Initial cell viability assessed by Trypanblue stain 0.4% (Sigma, UK) and viability more than 80% were considered for culturing. Hepatocytes were seeded in 96 well type-I collagen coated plates (Gibco®) at 4×10^4 cells/well in 100 μL of the culture medium and incubated at 37° C. in 5% CO2 and 95% relative humidity (RH) for 4 hr of cell attachment.
After 4 hr incubation, rat hepatocytes were washed twice with pre-warmed (37° C.) DMEM incubation medium supplemented with 10^−7 M dexamethasone and cell maintenance cocktail-B (CM4000, Gibco®) solution to remove unattached cells. Post washing hepatocytes were treated with test and reference compounds in incubation medium at single concentration (30 μM) in duplicate and incubate further for 24 hr at 37° C. with 5% CO2 and 95% RH. The final concentration of DMSO in medium was 0.5%.
Post 24 hr incubation, hepatocyte samples were quenched with equal volumes of acetonitrile containing 0.1% formic acid followed by vortex mix, sonicate and centrifuge at 12000 rpm at room temperature for 5 min. Supernatant samples were analyzed for GSH adducts on a C18 reverse-phase column (Xbridge™ Shield, C18, 4.6×150 mm, 3.5 μm) with solvent A (10 mM ammonium formate and 0.1% formic acid/water) and solvent B (0.1% formic acid/acetonitrile).
The column was eluted with 5% B for 5 min and then with a linear gradient to 20% B over 10 min and it was maintained up to 15 min, then it was increased linearly to 40% B up to 27 min and then increase to 90% B up to 29 min, and then equilibrate back the column to 5% B up to 33 min at a flow rate of 0.6 ml/min. The column effluent was directed into the ESI source of a LTQ Velos Orbitrap mass spectrometer (Thermo Fisher Scientific, San Jose, Calif.). The ESI conditions were as follows: sheath gas flow rate, 40 arbitrary units; auxiliary gas, 30 arbitrary units; spray voltage, 4.5 kV; capillary temperature, 230° C.; capillary voltage, 30 V; and tube lens offset, 25 V. Data were acquired in positive ion mode using Xcalibur software (Thermo Fisher Scientific) with one full scan followed by two data-dependent scans of the most intense and the second most intense ions. During the data interpretation the characteristic fragments of neutral loss of glycine (75.0320 Da), pyroglutamic acid (129.0426 Da) and loss of neutral moiety GSH (307.0838 Da) and/or a specific fragment of (GSH+H)^+ (m/z 308.0911) were monitored. Finally the fragments ions with m/z e.g. 179.0485, 177.0328 and 162.0219 Da, which were derived from the glutathione moiety were used to report GSH positive results.

[2] = human ProRS 20 nM, 10 min at 37° C., read-out: EPRS IC50

SMILES: Cc1cc(Br)cc2c(=O)n(CC(=O)C[C@H]3NCCC[C@@H]3O)cnc12.Cl [Example 3, 6-Bromo-3-{3-[(2R,3S)-3-hydroxypiperidin-2-yl]-2-oxopropyl}-8-methylquinazolin-4(3H)-one hydrochloride]
- IC50 [1, 2]: 4 nM
- GSH adduct formation (Rat hepatocytes): Negative

SMILES: Cc1cc(Cl)cc2c(=O)n(C[C@@H](O)C[C@H]3NCCC[C@@H]3O)cnc12.Cl [Example 30, 6-Chloro-3-{(S)-2-hydroxy-3-[(2R,3S)-3-hydroxypiperidin-2-yl]propyl}-8-methylquinazolin-4(3H)-one hydrochloride]
- IC50 [1, 2]: 19 nM
- GSH adduct formation (Rat hepatocytes): Negative

SMILES: Cc1cc2ncn(C[C@@H](O)C[C@H]3NCCC[C@@H]3O)c(=O)c2cc1Cl.Cl [Example 31, 6-Chloro-3-{(S)-2-hydroxy-3-[(2R,3S)-3-hydroxypiperidin-2-yl]propyl}-7-methylquinazolin-4(3H)-one hydrochloride]
- IC50 [1]: 17 nM
- GSH adduct formation (Rat hepatocytes): Negative (detected by mass only)

SMILES: Cc1cc2ncn(C[C@@H](O)C[C@H]3NCCC[C@@H]3O)c(=O)c2cc1F.Cl [Example 32, 6-Fluoro-3-{(S)-2-hydroxy-3-[(2R,3S)-3-hydroxypiperidin-2-yl]propyl}-7-methylquinazolin-4(3H)-one hydrochloride]
- IC50 [1, 2]: 55 nM
- GSH adduct formation (Rat hepatocytes): Negative

SMILES: COc1cc2ncn(C[C@@H](O)C[C@H]3NCCC[C@@H]3O)c(=O)c2cc1Cl.Cl [Example 33, 6-Chloro-3-{(S)-2-hydroxy-3-[(2R,3S)-3-hydroxypiperidin-2-yl]propyl}-7-methoxyquinazolin-4(3H)-one hydrochloride]
- IC50 [1, 2]: 116 nM
- GSH adduct formation (Rat hepatocytes): Negative

SMILES: Cl.O=c1c2c(-c3cccc(F)c3)cccc2ncn1C[C@@H](O)C[C@H]1NCCC[C@@H]1O [Example 49]
- GSH adduct formation (Rat hepatocytes): Negative

SMILES: O=c1c2c(C(F)(F)F)cccc2ncn1C[C@@H](O)C[C@H]1NCCC[C@@H]1O [Example 59, 3-{(S)-2-Hydroxy-3-[(2R,3S)-3-hydroxypiperidin-2-yl]propyl}-5-(trifluoromethyl)quinazolin-4(3H)-one hydrochloride]
- IC50 [1, 2]: 316 nM

SMILES: O=c1c2c(-c3cccc(C(F)(F)F)c3)cccc2ncn1C[C@@H](O)C[C@H]1NCCC[C@@H]1O [Example 60, 3-{(S)-2-Hydroxy-3-[(2R,3S)-3-hydroxypiperidin-2-yl]propyl}-5-[3-(trifluoromethyl)phenyl]quinazolin-4(3H)-one hydrochloride]
- IC50 [1, 2]: 38 nM

SMILES: O=c1c2c(-c3ccc(F)c(F)c3)cccc2ncn1C[C@@H](O)C[C@H]1NCCC[C@@H]1O [Example 61, 5-(3,4-Difluorophenyl)-3-{(S)-2-hydroxy-3-[(2R,3S)-3-hydroxypiperidin-2-yl]propyl}quinazolin-4(3H)-one hydrochloride]
- IC50 [1, 2]: 69 nM

SMILES: O=c1c2c(-c3cccnc3)cccc2ncn1C[C@@H](O)C[C@H]1NCCC[C@@H]1O [Example 62, 3-{(S)-2-Hydroxy-3-[(2R,3S)-3-hydroxypiperidin-2-yl]propyl}-5-(pyridin-3-yl)quinazolin-4(3H)-one dihydrochloride]
- IC50 [1, 2]: 53 nM

SMILES: Cc1cc(Cl)cc2c(=O)n(C[C@@H](O)C[C@H]3NCCC[C@@H]3OC(=O)C(C)(C)C)cnc12 [Example 63, (2R,3S)-2-{(S)-3-[6-chloro-8-methyl-4-oxoquinazolin-3(4H)-yl]-2-hydroxypropyl}piperidin-3-ylpivalate hydrochloride]
- IC50 [1, 2]: > 10000 nM

SMILES: Cc1cc(-c2ccn(C)n2)cc2c(=O)n(C[C@@H](O)C[C@H]3NCCC[C@@H]3O)cnc12 [Example 64, 3-{(S)-2-hydroxy-3-[(2R,3S)-3-hydroxypiperidin-2-yl]propyl}-8-methyl-6-(1-methyl-1H-pyrazol-3-yl)quinazolin-4(3H)-one hydrochloride]
- IC50 [1, 2]: 30 nM

SMILES: COC(=O)N1CCC[C@H](O)[C@H]1C[C@H](O)Cn1cnc2c(C)cc(Cl)cc2c1=O [Example 65, Methyl (2R,3S)-2-((S)-3-(6-chloro-8-methyl-4-oxoquinazolin-3(4H)-yl)-2-hydroxypropyl)-3-hydroxypiperidine-1-carboxylate]
- IC50 [1, 2]: > 10000 nM

SMILES: Cc1cc(-c2cscn2)cc2c(=O)n(C[C@@H](O)C[C@H]3NCCC[C@@H]3O)cnc12 [Example 66, 3-((S)-2-hydroxy-3-((2R,3S)-3-hydroxypiperidin-2-yl)propyl)-8-methyl-6-(thiazol-4-yl)quinazolin-4(3H)-one hydrochloride]
- IC50 [1, 2]: 13 nM

SMILES: Cc1cc(C2CCC2)cc2c(=O)n(C[C@@H](O)C[C@H]3NCCC[C@@H]3O)cnc12 [Example 67, 6-cyclobutyl-3-{(S)-2-hydroxy-3-[(2R,3S)-3-hydroxypiperidin-2-yl]propyl}-8-methylquinazolin-4(3H)-one]
- IC50 [1, 2]: 18 nM

SMILES: O=c1c2c(C3CC3)cccc2ncn1C[C@@H](O)C[C@H]1NCCC[C@@H]1O [Example 68, 5-Cyclopropyl-3-{(S)-2-hydroxy-3-[(2R,3S)-3-hydroxypiperidin-2-yl]propyl}quinazolin-4(3H)-one hydrochloride]
- IC50 [1, 2]: 9 nM

SMILES: Cc1cc(C2CCNCC2)cc2c(=O)n(C[C@@H](O)C[C@H]3NCCC[C@@H]3O)cnc12 [Example 69, 3-{(S)-2-hydroxy-3-[(2R,3S)-3-hydroxypiperidin-2-yl]propyl}-8-methyl-6-(piperidin-4-yl)quinazolin-4(3H)-one dihydrochloride]
- IC50 [1, 2]: 106 nM

SMILES: Cc1cc(Cl)cc2c(=O)n(C[C@@H]3C[C@@H]4[C@@H](O)CCCN4CO3)cnc12 [Example 72, 6-Chloro-3-{[(3S,4aR,5S)-5-hydroxyhexahydro-1H,3H-pyrido[1,2-c][1,3]oxazin-3-yl]methyl}-8-methylquinazolin-4(3H)-one]
- IC50 [1, 2]: > 10000 nM
